Measured values published in EP0965591A1, “(s)-3-methyl-1-(2-piperidino-phenyl)-1-butylamine, its salts, synthesis and use in the long term therapy of diabetes mellitus” (Boehringer Ingelheim Pharma KG, priority 1991, dated 1993).

Tests used:
[1] = system: weiblichen Ratten; assay: Blood-glucose-lowering effect in female rats; assay type: in vivo, Ratte; settings: for blutzuckersenkende Wirkung: female rats, comparison of the two enantiomers
Source text: Die beiden Enantiomeren dieser Verbindung, nämlich (S)(+)-2-Ethoxy-4-[N-[1-(2-piperidino-phenyl)-3-methyl-1-butyl]-aminocarbonylmethyl]benzoesäure (Code-Nr.: AG-EE 623 ZD) und (R) (-)-2-Ethoxy-4-[N-[1-(2-piperidino-phenyl)-3-methyl-1-butyl]aminocarbonylmethyl]benzoesäure (Code-Nr.: AG-EE 624 ZD), wurden auf ihre blutzuckersenkende Wirkung an weiblichen Ratten geprüft.

[2] = design: species or system Menschen; settings: in vivo
Experimental: Dies wirkt sich z.B. bei Applikation einer Tablette mit 2 mg AG-EE 388 ZW bzw. einer Tablette mit 1 mg AG-EE 623 ZW an 12 bzw. 6 Probanden so aus, daß die Maximal-Konzentrationen 84 ± 25 bzw. 28 ± 18 ng/ml sowie die Konzentrationen nach 4 Stunden 19 ± 8 bzw. 0,7 ± 1,0 ng/ml, nach 5 Stunden 13 ± 6 bzw. 0,3 ± 0,7 ng/ml und nach 6 Stunden 10 ± 6 bzw. 0,3 ± 0,7 ng/ml betragen.

[3] = system: Menschen; assay: Blood-glucose-lowering effect in human studies; assay type: in vivo
Source text: Auf Grund dieser Ergebnisse an der Ratte erscheint für den Menschen die ausschließliche Verwendung von AG-EE 623 ZW geboten, wodurch die Dosis im Vergleich zur AG-EE 388 ZW-Dosis um 50 % reduziert werden kann. […] Darüber hinaus wurde jedoch bei den Human-Studien gefunden, daß AG-EE 623 ZW überraschende pharmakokinetische Eigenschaften aufweist, die auf Grund der AG-EE 388 ZW-Daten nicht vorhersehbar waren. AG-EE 623 ZW zeigt somit überraschende therapeutische Vorteile gegenüber dem Racemat AG-EE 388 ZW.

[4] = system: Ratten; assay: Acute toxicity after a single oral dose in rats; assay type: in vivo; settings: single 1000 mg/kg p.o., suspension in 1% Methylcellulose; 5 male and 5 female rats; 14 days observation

Structure (SMILES): CCOc1cc(CC(=O)N[C@@H](CC(C)C)c2ccccc2N2CCCCC2)ccc1C(=O)O [AG-EE 623 ZW, (S)(+)-2-Ethoxy-4-[N-[1-(2-piperidino-phenyl)-3-methyl-1-butyl]-aminocarbonylmethyl]benzoesäure]
- blutzuckersenkende Wirkung [1]: das wirksame Enantiomere
- Dauer der Wirkung ([1]; rat, blood-glucose-lowering effect): > 6 Stunden
- Elimination [2]: wesentlich schneller als das unwirksame Enantiomere, AG-EE 624 ZW, eliminiert
- Plasmaspiegel in Relation zur erzielten Blutzuckersenkung [2]: wesentlich niedrigere Plasmaspiegel
- Wirkungsdauer [3]: relativ lange Wirkungsdauer
- verstorbene Tiere [4]: kein Tier

Structure (SMILES): CCOc1cc(CC(=O)N[C@H](CC(C)C)c2ccccc2N2CCCCC2)ccc1C(=O)O [AG-EE 624 ZW, (R) (-)-2-Ethoxy-4-[N-[1-(2-piperidino-phenyl)-3-methyl-1-butyl]aminocarbonylmethyl]benzoesäure, reference compound]
- blutzuckersenkende Wirkung [1]: das unwirksame Enantiomere
- Plasma-Konzentrationen nach Racemat-Gabe [2]: in unerwartet höheren Maximal- und Dauer-Spiegeln anwesend
